Measured values from patent publication US20110092544A1, “FUNGICIDAL PYRIDINES” (E.I. DU PONT DE nemours and company, priority 2008, published 2011).

What was measured:
Assay type in all cases: in vivo
[1] = system: Septoria nodorum; assay: Test D: wheat glume blotch, preventive spray on wheat seedlings, visual disease rating
Outline: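 Compounds in 3% acetone, then 50/50 acetone–water with 250 ppm Trem 014, sprayed to run-off at 200 ppm (500 g/ha; some at 40 ppm) one day before spore inoculation. Held 48 h saturated at 20 °C, then 7 days at 20 °C; visual rating as % disease control vs untreated (0–100).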

[2] = system: Botrytis cinerea; assay: Test F: tomato botrytis, preventive spray on tomato seedlings, visual disease rating
Outline: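 Tomato seedlings sprayed to run-off with compound suspended in acetone/water (50/50) plus 250 ppm Trem 014, at 200 ppm (≈500 g/ha) or 40 ppm where marked. Inoculated next day with B. cinerea spores, 48 h saturated atmosphere at 20 °C, then 3 days at 24 °C. Visual rating, 0–100% disease control relative to controls.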

[3] = system: Erysiphe graminis f. sp. tritici; assay: Test A: wheat powdery mildew, preventive spray on wheat seedlings, visual disease rating
Outline: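 Acetone/water (50/50) suspension with 250 ppm surfactant sprayed to run-off on wheat seedlings (200 ppm ≈ 500 g/ha); inoculated next day with E. graminis spore dust. Incubated 8 days at 20° C, then visually rated 0–100% disease control versus untreated controls; tests at 200 ppm or 40 ppm.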

[4] = system: Alternaria solani; assay: Test E: tomato early blight, preventive spray on tomato seedlings, visual disease rating
Outline: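 Seedlings sprayed to run-off with compound in acetone/water plus 250 ppm Trem 014 (200 ppm ≈ 500 g/ha), inoculated with spores next day. Held 48 h saturated at 27 °C, then 5 days at 20 °C; visual rating 0–100% disease control relative to controls.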

[5] = system: Plasmopara viticola; assay: Test H: grape downy mildew, spray after inoculation of grape seedlings, visual disease rating; details: 200 ppm, 100 = 100% disease control, 0 = no control; for pest or weed control at 200 ppm: Plasmopara viticola, 192 h
From the text: General protocol for preparing test suspensions for Tests A-H: The test compounds were first dissolved in acetone in an amount equal to 3% of the final volume and then suspended at the desired concentration (in ppm) in acetone and purified water (50/50 mix) containing 250 ppm of the surfactant Trem® 014 (polyhydric alcohol esters). The resulting test suspensions were then used in tests A-H. Spraying a 200 ppm test suspension to the point of run-off on the test plants was the equivalent of a rate of 500 g/ha.
Grape seedlings were inoculated with a spore suspension of Plasmopara viticola (the causal agent of grape downy mildew) and incubated in a saturated atmosphere at 20° C. for 24 h. After a short drying period, the test suspension was sprayed to the point of run-off on the grape seedlings, and then moved to a growth chamber at 20° C. for 6 days, after which time the test units were placed back into a saturated atmosphere at 20° C. for 24 h. Upon removal, disease ratings were visually made.
Results for Tests A-H are given in Table A. In the table, a rating of 100 indicates 100% disease control and a rating of 0 indicates no disease control (relative to the controls). A dash (-) indicates no test results. All results are for compounds tested at 200 ppm except where the compound number is followed by “*” which indicates the compound was tested at 40 ppm.

[6] = system: Puccinia recondite f. sp. tritici; assay: Test B: wheat leaf rust, preventive spray on wheat seedlings, visual disease rating
Outline: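 Wheat seedlings were sprayed to run-off with compound suspension, 200 ppm (≈500 g/ha) or 40 ppm where marked, containing surfactant in acetone/water. Inoculation with Puccinia recondita spores followed one day later, then 24 h in saturated humidity at 20° C and 7 days at 20° C. Disease control was rated visually, 0–100% versus controls.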

[7] = system: Septoria tritici; assay: Test C: wheat leaf blotch, preventive spray on wheat seedlings, visual disease rating
Outline: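 Wheat seedlings sprayed to run-off with compound in acetone/water plus 250 ppm surfactant at 200 ppm (≈500 g/ha), or 40 ppm where marked; inoculated with Septoria tritici next day. Held saturated at 20 °C for 48 h, then 19 days at 20 °C; disease control rated visually 0–100 versus controls.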

[8] = 200 ppm, 100 = 100% disease control, 0 = no control
[9] = Parastagonospora nodorum, 216 h, 200 ppm, 100 = 100% disease control, 0 = no control
[10] = Botrytis cinerea, 120 h, 200 ppm, 100 = 100% disease control, 0 = no control
[11] = Blumeria graminis, 192 h, 200 ppm, 100 = 100% disease control, 0 = no control
[12] = Alternaria solani, 168 h, 200 ppm, 100 = 100% disease control, 0 = no control
[13] = Zymoseptoria tritici, 504 h, 200 ppm, 100 = 100% disease control, 0 = no control
[14] = 192 h, 200 ppm, 100 = 100% disease control, 0 = no control
[15] = 40 ppm (compound number followed by *)

Structure (SMILES): CCOC(=O)c1cnc(C)c(-c2ccccc2)c1-c1cc(OC)cc(OC)c1 [Compound 1]
- Test D rating (% disease control) [1, 8]: 0%
- Test F rating (% disease control) [2, 8]: 99%
- Test A rating (% disease control) [3, 8]: 96%
- Test E rating (% disease control) [4, 8]: 0%
- Test H rating (% disease control) [5]: 0%
- Test B rating (% disease control) [6, 8]: 28%

Structure (SMILES): COc1cc(OC)cc(-c2c(C(C)=O)cnc(C)c2-c2ccccc2)c1 [Compound 2]
- Test D rating (% disease control) [1, 8]: 0%
- Test F rating (% disease control) [2, 8]: 99%
- Test A rating (% disease control) [3, 8]: 95%
- Test E rating (% disease control) [4, 8]: 0%
- Test H rating (% disease control) [5]: 0%
- Test B rating (% disease control) [6, 8]: 0%

Structure (SMILES): CCOC(=O)c1cnc(C)c(-c2ccc(F)cc2)c1-c1cc(OC)cc(OC)c1 [Compound 11, ethyl 4-(3,5-dimethoxyphenyl)-5-(4-fluorophenyl)-6-methyl-3-pyridinecarboxylate]
- pest or weed control at 200 ppm [1, 9]: 0%
- pest or weed control at 200 ppm [2, 10]: 0%
- pest or weed control at 200 ppm [3, 11]: 98%
- pest or weed control at 200 ppm [4, 12]: 0%
- pest or weed control at 200 ppm [7, 13]: 30%
- pest or weed control at 200 ppm [5]: 0%
- pest or weed control at 200 ppm [6, 14]: 0%

Structure (SMILES): COc1cc(OC)cc(-c2c(C(C)=O)cnc(C)c2-c2ccc(F)cc2)c1 [Compound 12, 1-[4-(3,5-dimethoxyphenyl)-5-(4-fluorophenyl)-6-methyl-3-pyridinyl]ethanone]
- pest or weed control at 200 ppm [1, 9]: 0%
- pest or weed control at 200 ppm [2, 10]: 99%
- pest or weed control at 200 ppm [3, 11]: 95%
- pest or weed control at 200 ppm [4, 12]: 90%
- pest or weed control at 200 ppm [7, 13]: 92%
- pest or weed control at 200 ppm [5]: 0%
- pest or weed control at 200 ppm [6, 14]: 93%

Structure (SMILES): COc1cc(OC)cc(-c2c(C(C)(C)O)cnc(C)c2-c2ccc(F)cc2)c1 [Compound 13, 4-(3,5-dimethoxyphenyl)-5-(4-fluorophenyl)-α,α,6-trimethyl-3-pyridinemethanol]
- pest or weed control at 200 ppm [1, 9]: 0%
- pest or weed control at 200 ppm [2, 10]: 99%
- pest or weed control at 200 ppm [3, 11]: 96%
- pest or weed control at 200 ppm [4, 12]: 100%
- pest or weed control at 200 ppm [7, 13]: 100%
- pest or weed control at 200 ppm [5]: 0%
- pest or weed control at 200 ppm [6, 14]: 99%

Structure (SMILES): CCC(C)(O)c1cnc(C)c(-c2ccc(F)cc2)c1-c1cc(OC)cc(OC)c1 (stereo not shown) [Compound 14]
- Test D rating (% disease control) [1, 8]: 0%
- Test F rating (% disease control) [2, 8]: 99%
- Test A rating (% disease control) [3, 8]: 97%
- Test E rating (% disease control) [4, 8]: 99%
- Test C rating (% disease control) [7, 8]: 99%
- Test H rating (% disease control) [5]: 0%
- Test B rating (% disease control) [6, 8]: 98%

Structure (SMILES): CCOC(=O)c1cnc(C)c(-c2ccccc2)c1-c1cc(OC)ccc1F [Compound 15]
- Test D rating (% disease control) [1, 8]: 0%
- Test F rating (% disease control) [2, 8]: 96%
- Test A rating (% disease control) [3, 8]: 82%
- Test E rating (% disease control) [4, 8]: 0%
- Test C rating (% disease control) [7, 8]: 7%
- Test H rating (% disease control) [5]: 0%
- Test B rating (% disease control) [6, 8]: 0%

Structure (SMILES): COc1cc(OC)cc(-c2c(C(C)C)cnc(C)c2-c2ccccc2F)c1 [Compound 21]
- Test D rating (% disease control) [1, 8]: 0%
- Test F rating (% disease control) [2, 8]: 98%
- Test A rating (% disease control) [3, 8]: 100%
- Test E rating (% disease control) [4, 8]: 97%
- Test C rating (% disease control) [7, 8]: 100%
- Test H rating (% disease control) [5]: 40%
- Test B rating (% disease control) [6, 8]: 99%

Structure (SMILES): COc1cc(OC)cc(-c2c(-c3ccccc3F)c[n+]([O-])c(C)c2-c2ccccc2)c1 [Compound 33]
- Test F rating (% disease control) [2, 8]: 95%
- Test A rating (% disease control) [3, 8]: 79%
- Test E rating (% disease control) [4, 8]: 100%
- Test H rating (% disease control) [5]: 0%

Structure (SMILES): CCOC(=O)c1c[n+]([O-])c(C)c(-c2ccccc2)c1-c1cc(OC)cc(OC)c1 [Compound 51]
- Test D rating (% disease control) [1, 8]: 0%
- Test F rating (% disease control) [2, 8]: 0%
- Test A rating (% disease control) [3, 8]: 76%
- Test E rating (% disease control) [4, 8]: 0%
- Test H rating (% disease control) [5]: 0%
- Test B rating (% disease control) [6, 8]: 0%

Structure (SMILES): COc1cc(OC)cc(-c2c(-c3cccnc3)cnc(C)c2-c2c(F)cc(F)cc2F)c1 [Compound 128]
- Test D rating (% disease control) [1, 15]: 90%
- Test F rating (% disease control) [2, 15]: 99%
- Test A rating (% disease control) [3, 15]: 81%
- Test E rating (% disease control) [4, 15]: 94%
- Test C rating (% disease control) [7, 15]: 100%
- Test B rating (% disease control) [6, 15]: 99%

Structure (SMILES): COc1cc(OC)cc(-c2c(C)cnc(C)c2-c2c(F)cc(F)cc2F)c1 [Compound 129]
- Test D rating (% disease control) [1, 15]: 60%
- Test F rating (% disease control) [2, 15]: 99%
- Test A rating (% disease control) [3, 15]: 99%
- Test E rating (% disease control) [4, 15]: 66%
- Test C rating (% disease control) [7, 15]: 99%
- Test B rating (% disease control) [6, 15]: 100%

Structure (SMILES): COc1cc(OC)cc(-c2c(-c3cnc(OC)nc3OC)cnc(C)c2-c2c(F)cc(F)cc2F)c1 [Compound 131]
- Test D rating (% disease control) [1, 15]: 0%
- Test F rating (% disease control) [2, 15]: 80%
- Test A rating (% disease control) [3, 15]: 0%
- Test E rating (% disease control) [4, 15]: 0%
- Test C rating (% disease control) [7, 15]: 0%
- Test B rating (% disease control) [6, 15]: 9%

Structure (SMILES): COc1cc(OC)cc(-c2c(-c3cccs3)cnc(C)c2-c2c(F)cc(F)cc2F)c1 [Compound 132]
- Test D rating (% disease control) [1, 15]: 97%
- Test F rating (% disease control) [2, 15]: 99%
- Test A rating (% disease control) [3, 15]: 90%
- Test E rating (% disease control) [4, 15]: 93%
- Test C rating (% disease control) [7, 15]: 99%
- Test B rating (% disease control) [6, 15]: 99%

Structure (SMILES): COc1cc(OC)c(Cl)c(-c2c(CCl)cnc(C)c2-c2c(F)cc(F)cc2F)c1 [Compound 134]
- Test D rating (% disease control) [1, 15]: 92%
- Test F rating (% disease control) [2, 15]: 100%
- Test A rating (% disease control) [3, 15]: 99%
- Test E rating (% disease control) [4, 15]: 96%
- Test C rating (% disease control) [7, 15]: 99%
- Test B rating (% disease control) [6, 15]: 100%

Structure (SMILES): COc1cc(OC)c(Cl)c(-c2c(-c3ccccc3F)cnc(C)c2-c2c(F)cc(F)cc2F)c1 [Compound 135, 4-(2-chloro-3,5-dimethoxyphenyl)-5-(2-fluorophenyl)-2-methyl-3-(2,4,6-trifluorophenyl)pyridine]
- pest or weed control at 40 ppm ([1]; Parastagonospora nodorum, 216 h, 40 ppm (compound number followed by *)): 96%
- pest or weed control at 40 ppm ([2]; Botrytis cinerea, 120 h, 40 ppm (compound number followed by *)): 100%
- pest or weed control at 40 ppm ([3]; Blumeria graminis, 192 h, 40 ppm (compound number followed by *)): 98%
- pest or weed control at 40 ppm ([4]; Alternaria solani, 168 h, 40 ppm (compound number followed by *)): 88%
- pest or weed control at 40 ppm ([7]; Zymoseptoria tritici, 504 h, 40 ppm (compound number followed by *)): 99%
- pest or weed control at 40 ppm ([6]; 192 h, 40 ppm (compound number followed by *)): 100%

Structure (SMILES): COc1cc(OC)c(Cl)c(-c2c(-c3ccccc3F)cnc(C)c2-c2c(F)cc(F)cc2F)c1Cl [Compound 136]
- Test D rating (% disease control) [1, 15]: 0%
- Test F rating (% disease control) [2, 15]: 48%
- Test A rating (% disease control) [3, 15]: 0%
- Test E rating (% disease control) [4, 15]: 0%
- Test C rating (% disease control) [7, 15]: 40%
- Test B rating (% disease control) [6, 15]: 74%

Structure (SMILES): Cc1nc(C#N)c(C)c(-c2ccc(Cl)cc2)c1-c1c(F)cccc1F [Compound 143]
- Test D rating (% disease control) [1, 15]: 0%
- Test F rating (% disease control) [2, 15]: 28%
- Test A rating (% disease control) [3, 15]: 99%
- Test E rating (% disease control) [4, 15]: 97%
- Test C rating (% disease control) [7, 15]: 100%
- Test B rating (% disease control) [6, 15]: 97%

Structure (SMILES): Cc1cnc(C)c(-c2c(F)cccc2F)c1-c1ccc(Cl)cc1 [Compound 144]
- Test D rating (% disease control) [1, 15]: 0%
- Test F rating (% disease control) [2, 15]: 45%
- Test A rating (% disease control) [3, 15]: 0%
- Test E rating (% disease control) [4, 15]: 0%
- Test C rating (% disease control) [7, 15]: 0%
- Test B rating (% disease control) [6, 15]: 0%
